Assay results from ChEMBL document CHEMBL1159104, “Potent transglutaminase inhibitors, aryl beta-aminoethyl ketones” (Bioorg Med Chem Lett, 2010).
pIC50: −log10 of the molar value.

What follows are compounds tested against T1, Protein-glutamine gamma-glutamyltransferase (Cavia porcellus, UniProt Q7M0F8) (assay: Inhibition of guinea pig liver transglutaminase).
T1 sequence (Q7M0F8 whole entry): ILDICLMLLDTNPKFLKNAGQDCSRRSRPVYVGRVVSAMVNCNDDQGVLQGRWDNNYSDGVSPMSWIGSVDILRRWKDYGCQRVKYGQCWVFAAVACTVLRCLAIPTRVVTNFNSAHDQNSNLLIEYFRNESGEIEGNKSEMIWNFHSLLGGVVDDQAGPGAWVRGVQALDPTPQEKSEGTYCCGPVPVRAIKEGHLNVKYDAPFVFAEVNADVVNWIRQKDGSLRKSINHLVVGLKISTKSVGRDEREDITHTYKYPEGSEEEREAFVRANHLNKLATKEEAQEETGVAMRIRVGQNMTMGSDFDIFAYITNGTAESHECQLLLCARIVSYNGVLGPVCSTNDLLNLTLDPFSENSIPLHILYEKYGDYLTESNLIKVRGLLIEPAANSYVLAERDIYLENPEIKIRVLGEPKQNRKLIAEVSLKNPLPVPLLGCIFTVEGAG

| pIC50 | Structure (SMILES) |
| --- | --- |
| 5.25 | CC(C)N(CCC(=O)c1ccccc1)Cc1ccccc1 |
| 4.68 | CN(CCC(=O)c1ccc2ccccc2c1)Cc1ccccc1 |
| 6.08 | CC(C)N(CCC(=O)c1ccncc1)Cc1ccccc1 |
| 5.66 | CC(C)N(CCO)CCC(=O)c1ccc(Cl)cc1 |
| 5.37 | CN(CCC(=O)c1nccs1)Cc1ccccc1 |
| 6.26 | CCN(CCC(=O)c1ccco1)Cc1ccccc1 |
| 6.04 | CCc1nccnc1C(=O)CCN(Cc1ccccc1)C(C)C |
| 5.17 | CC(C)(C)N(CCO)CCC(=O)c1cccs1 |
| 5.64 | CCCCN(CCO)CCC(=O)c1ncc(C)s1 |
| 5.70 | CN(CCC(=O)c1ccncc1)Cc1ccccc1 |
| 5.85 | CC(C)N(CCC(=O)c1cccs1)Cc1ccccc1 |
| 5.77 | CCCCN(CCO)CCC(=O)c1cnccn1 |
| 5.21 | CC(C)N(CCO)CCC(=O)c1ccc(C#N)cc1 |
| 5.44 | CC(C)(C)N(CCC(=O)c1ccc(Cc2ccccc2)cc1)Cc1ccccc1 |
| 5.82 | O=C(CCN(CCO)Cc1ccccc1)c1ccc(Cl)s1 |
| 5.27 | CC(C)N(CCO)CCC(=O)c1ccc(Cl)s1 |
| 5.37 | Cc1ccc(C(=O)CCN(C)Cc2ccccc2)o1 |
| 5.89 | O=C(CCN(CCO)Cc1ccccc1)c1ccco1 |
| 5.92 | CN(CCC(=O)c1cnccn1)Cc1ccccc1 |
| 5.64 | Cc1ccc(C(=O)CCN(Cc2ccccc2)C(C)(C)C)o1 |
| 6.21 | CCN(CCC(=O)c1ccc(Br)s1)Cc1ccccc1 |
| 5.85 | CC(C)(C)N(CCC(=O)c1ccncc1)Cc1ccccc1 |
| 4.80 | CC(C)N(CCO)CCC(=O)c1ccc2ccccc2c1 |
| 5.00 | O=C(CCN(CCO)Cc1ccccc1)c1cccs1 |
| 5.00 | CC(C)N(CCO)CCC(=O)c1ccc(F)cc1 |
| 5.85 | Cc1ccc(C(=O)CCN(C)CCO)o1 |
| 4.92 | CCCCN(CCO)CCC(=O)c1ccsc1 |

| pIC50 | Structure (SMILES) |
| --- | --- |
| 5.57 | CC(C)(C)N(CCO)CCC(=O)c1cnccn1 |
| 6.38 | CCN(CCC(=O)c1ccc(Cl)s1)Cc1ccccc1 |
| 6.49 | CC(C)N(CCC(=O)c1ccco1)Cc1ccccc1 |
| 5.85 | CCN(CCC(=O)c1ccncc1)Cc1ccccc1 |
| 5.77 | CC(C)N(CCC(=O)c1ccc2c(Cl)cccc2c1)Cc1ccccc1 |
| 5.35 | CC(C)(C)N(CCO)CCC(=O)c1ccco1 |
| 5.16 | O=C(CCN(CCO)CCO)c1nccs1 |
| 5.72 | O=C(CCN(CCO)CCO)c1ccc(Cl)s1 |
| 5.00 | CN(CCO)CCC(=O)c1cnccn1 |
| 5.28 | CN(CCO)CCC(=O)c1cccnc1 |
| 6.33 | CC(C)(C)N(CCC(=O)c1cccnc1)Cc1ccccc1 |
| 6.00 | CC(C)(C)N(CCC(=O)c1ccccn1)Cc1ccccc1 |
| 4.77 | CN(CCC(=O)c1ccccn1)Cc1ccccc1 |
| 5.57 | CCCCN(CCO)CCC(=O)c1cccnc1 |
| 6.64 | CC(C)N(CCC(=O)c1ccc(Cl)s1)Cc1ccccc1 |
| 6.07 | Cc1cnc(C(=O)CCN(Cc2ccccc2)C(C)C)s1 |
| 6.92 | CC(C)N(CCO)CCC(=O)c1ccco1 |
| 6.00 | CN(CCC(=O)c1ccc(Cl)s1)Cc1ccccc1 |
| 6.17 | Cc1ccc(C(=O)CCN(CCO)C(C)(C)C)o1 |
| 5.33 | CN(CCO)CCC(=O)c1nccs1 |
| 6.23 | CC(C)N(CCC(=O)c1ccc(C#N)cc1)Cc1ccccc1 |
| 5.29 | O=C(CCN(CCO)CCO)c1ccccn1 |
| 6.72 | CC(C)N(CCC(=O)c1ccc(Br)s1)Cc1ccccc1 |
| 4.59 | CN(CCC(=O)c1ccc(Cc2ccccc2)cc1)Cc1ccccc1 |
| 5.82 | O=C(CCN(CCO)Cc1ccccc1)c1ccc2c(Cl)cccc2c1 |
| 5.59 | CC(C)N(CCC(=O)c1ccc(Cc2ccccc2)cc1)Cc1ccccc1 |
| 4.96 | CC(C)(C)N(CCC(=O)c1ccsc1)Cc1ccccc1 |

| pIC50 | Structure (SMILES) |
| --- | --- |
| 5.77 | CCc1nccnc1C(=O)CCN(Cc1ccccc1)C(C)(C)C |
| 5.60 | CC(C)N(CCO)CCC(=O)c1cc(Cl)sc1Cl |
| 5.00 | CC(C)(C)N(CCO)CCC(=O)c1ccc(C#N)cc1 |
| 5.18 | Cc1ccc(C(=O)CCN(CCO)Cc2ccccc2)o1 |
| 5.59 | CCN(CCC(=O)c1nccs1)Cc1ccccc1 |
| 6.11 | CC(C)N(CCC(=O)c1cc2ccccc2s1)Cc1ccccc1 |
| 5.64 | O=C(CCN(CCO)Cc1ccccc1)c1cccnc1 |
| 5.85 | CC(C)N(CCC(=O)c1ccc(Cl)cc1)Cc1ccccc1 |
| 6.08 | CCCCN(CCO)CCC(=O)c1ccco1 |
| 5.77 | CC(C)(C)N(CCC(=O)c1ccc(C#N)cc1)Cc1ccccc1 |
| 5.68 | CCN(CCC(=O)c1cccs1)Cc1ccccc1 |
| 5.31 | O=C(CCN(CCO)Cc1ccccc1)c1ccncn1 |
| 6.49 | Cc1ccc(C(=O)CCN(Cc2ccccc2)C(C)C)o1 |
| 6.08 | CC(C)N(CCC(=O)c1cccnc1)Cc1ccccc1 |
| 4.66 | O=C(CCN(CCO)CCO)c1ccc2ccccc2c1 |
| 4.96 | CC(C)N(CCO)CCC(=O)c1ccsc1 |
| 5.77 | CC(C)(C)N(CCC(=O)c1ccccc1)Cc1ccccc1 |
| 5.57 | O=C(CCN(CCO)Cc1ccccc1)c1csc(Cl)c1 |
| 5.11 | CC(C)(C)N(CCO)CCC(=O)c1cccnc1 |
| 4.92 | CC(C)N(CCC(=O)c1ccc(Oc2ccccc2)cc1)Cc1ccccc1 |
| 6.38 | Cc1ccc(C(=O)CCN(CCO)C(C)C)o1 |
| 5.57 | CCN(CCC(=O)c1ccccn1)Cc1ccccc1 |
| 5.13 | CCCCN(CCO)CCC(=O)c1ccc(Oc2ccccc2)cc1 |
| 5.07 | O=C(CCN(CCO)Cc1ccccc1)c1nccs1 |
| 4.96 | CC(C)(C)N(CCO)CCC(=O)c1ccncc1 |
| < 4.52 | CN(CCO)CCC(=O)c1ccccn1 |
| 5.32 | CC(C)N(CCO)CCC(=O)c1ccncc1 |

| pIC50 | Structure (SMILES) |
| --- | --- |
| 5.60 | O=C(CCN(CCO)Cc1ccccc1)c1ccncc1 |
| 6.01 | CC(C)N(CCC(=O)c1cc(Cl)sc1Cl)Cc1ccccc1 |
| 4.89 | O=C(CCN(CCO)CCO)c1ccsc1 |
| 5.48 | O=C(CCN(CCO)CCO)c1cccnc1 |
| 5.85 | CCCCN(CCO)CCC(=O)c1ccc(Br)s1 |
| 5.92 | O=C(CCN(CCO)CCO)c1cnccn1 |
| 6.19 | CC(C)(C)N(CCC(=O)c1ccco1)Cc1ccccc1 |
| 4.92 | CCN(CCC(=O)c1ccsc1)Cc1ccccc1 |
| 4.85 | CN(CCO)CCC(=O)c1ccsc1 |
| 6.17 | CCN(CCC(=O)c1cnccn1)Cc1ccccc1 |
| 5.16 | CC(C)N(CCO)CCC(=O)c1cnccn1 |
| 5.10 | CN(CCO)CCC(=O)c1ccncc1 |
| 6.15 | CC(C)(C)N(CCC(=O)c1ccc(Cl)cc1)Cc1ccccc1 |
| 5.00 | CC(C)N(CCO)CCC(=O)c1ccccc1 |
| 5.03 | CC(C)N(CCO)CCC(=O)c1cc2ccccc2s1 |
| 5.13 | CC(C)N(CCO)CCC(=O)c1cccnc1 |
| 5.40 | CN(CCO)CCC(=O)c1cccs1 |
| 5.72 | CCCCN(CCO)CCC(=O)c1ccc2c(Cl)cccc2c1 |
| 5.46 | O=C(CCN(CCO)CCO)c1ccncc1 |
| 5.19 | Cc1ccc(C(=O)CCN(CCO)CCO)o1 |
| 5.07 | CC(C)N(CCC(=O)c1ccsc1)Cc1ccccc1 |
| 5.00 | CC(C)N(CCC(=O)c1ccc(F)cc1)Cc1ccccc1 |
| 4.92 | CC(C)(C)N(CCO)CCC(=O)c1ccccn1 |
| 5.77 | CCN(CCC(=O)c1cccnc1)Cc1ccccc1 |
